From doi:10.1101/2025.08.01.667454v3 (biorxiv, 2025)
pIC50, pKd: −log10 of the molar value.

Key:
BAF60A^YLD+SWIB [1] = target: T1, BAF60A^YLD+SWIB (Homo sapiens, UniProt Q96GM5); assay: SPR steady state, amine-coupled protein; assay type: binding
BAF60A^YLD+SWIB [2] = target: T1, BAF60A^YLD+SWIB; assay: fluorescence polarization competition with PU.[…]; assay type: binding

pKd (BAF60A^YLD+SWIB [1])	pIC50 (BAF60A^YLD+SWIB [2])	SMILES
5.05	5.04	CC1=C(C(=O)Nc2cccc(C)n2)C(c2cccc(Br)c2)C2=C(CCCC2=O)N1 (stereo not shown) [PPSC-001]
4.65	4.48	COC(=O)c1ccc(Cn2c(C)nc3cc4c(cc32)OCCO4)cc1 [PPSC-002]
